Six compounds from patent US12605451B2, “Targeted plasma protein degradation” (Novartis AG, priority 2020, dated 2026) can be followed below.

Like-named read-outs stand apart in the source and are kept apart here. Positions of bridges follow the written chain, without caps; N, C: chain ends. Non-standard residues stand in square brackets, D forms with d. Residues, ends and D or L forms follow the SMILES beside them. *: point of attachment. X6 = O=C(CCCO[C@@H]1OC(CO[C@H]2OC(CO[C@H]3OC(CO)[C@@H](O)C(O)C3C[C@H]3OC(COP(=O)(O)O)[C@@H](O)C(O)C3O)[C@@H](O)C(O)C2O)[C@@H](O)C(O[C@H]2OC(CO)[C@@H](O)C(O)C2O[C@H]2OC(COP(=O)(O)O)[C@@H](O)C(O)C2O)C1O)NNC(=O)CO/N=C/c1ccc(C(=O)*)cc1; X7 = O=C(OC[C@@H]1[C@@H]2CCc3c(nnn3CCCCCCO[C@H](O[C@@H](/C=N/OCCO[C@H]3O[C@H](CCP(=O)(O)O)[C@@H](O)[C@H](O)[C@@H]3O)CO)[C@H](O)/C=N\OCCO[C@H]3O[C@H](CCP(=O)(O)O)[C@@H](O)[C@H](O)[C@@H]3O)CC[C@@H]21)*; X2 = CC(=O)N[C@H]1[C@H]2OC[C@](COCCOCCOCCOCCn3cc(COCC(COCc4cn(CCOCCOCCOCCOC[C@@]56CO[C@@H](O5)[C@H](NC(C)=O)[C@@H](O)[C@H]6O)nn4)NC(=O)CCOCCOCCOCCOCCC(=O)*)nn3)(O2)[C@H](O)[C@@H]1O; Bip = N[C@@H](Cc1ccc(-c2ccccc2)cc1)C(=O)O; NMeA = CN[C@@H](C)C(=O)O

For one assay, the target named is M6PR (Homo sapiens, UniProt P11717). In words: SPR binding to M6P receptor. From the text: SPR was used to obtain the binding data for M6P receptor ligands compounds (int-CC6), either alone or as part of the bifunctional compound (BFC-2).
Sequence of M6PR (P11717 whole entry): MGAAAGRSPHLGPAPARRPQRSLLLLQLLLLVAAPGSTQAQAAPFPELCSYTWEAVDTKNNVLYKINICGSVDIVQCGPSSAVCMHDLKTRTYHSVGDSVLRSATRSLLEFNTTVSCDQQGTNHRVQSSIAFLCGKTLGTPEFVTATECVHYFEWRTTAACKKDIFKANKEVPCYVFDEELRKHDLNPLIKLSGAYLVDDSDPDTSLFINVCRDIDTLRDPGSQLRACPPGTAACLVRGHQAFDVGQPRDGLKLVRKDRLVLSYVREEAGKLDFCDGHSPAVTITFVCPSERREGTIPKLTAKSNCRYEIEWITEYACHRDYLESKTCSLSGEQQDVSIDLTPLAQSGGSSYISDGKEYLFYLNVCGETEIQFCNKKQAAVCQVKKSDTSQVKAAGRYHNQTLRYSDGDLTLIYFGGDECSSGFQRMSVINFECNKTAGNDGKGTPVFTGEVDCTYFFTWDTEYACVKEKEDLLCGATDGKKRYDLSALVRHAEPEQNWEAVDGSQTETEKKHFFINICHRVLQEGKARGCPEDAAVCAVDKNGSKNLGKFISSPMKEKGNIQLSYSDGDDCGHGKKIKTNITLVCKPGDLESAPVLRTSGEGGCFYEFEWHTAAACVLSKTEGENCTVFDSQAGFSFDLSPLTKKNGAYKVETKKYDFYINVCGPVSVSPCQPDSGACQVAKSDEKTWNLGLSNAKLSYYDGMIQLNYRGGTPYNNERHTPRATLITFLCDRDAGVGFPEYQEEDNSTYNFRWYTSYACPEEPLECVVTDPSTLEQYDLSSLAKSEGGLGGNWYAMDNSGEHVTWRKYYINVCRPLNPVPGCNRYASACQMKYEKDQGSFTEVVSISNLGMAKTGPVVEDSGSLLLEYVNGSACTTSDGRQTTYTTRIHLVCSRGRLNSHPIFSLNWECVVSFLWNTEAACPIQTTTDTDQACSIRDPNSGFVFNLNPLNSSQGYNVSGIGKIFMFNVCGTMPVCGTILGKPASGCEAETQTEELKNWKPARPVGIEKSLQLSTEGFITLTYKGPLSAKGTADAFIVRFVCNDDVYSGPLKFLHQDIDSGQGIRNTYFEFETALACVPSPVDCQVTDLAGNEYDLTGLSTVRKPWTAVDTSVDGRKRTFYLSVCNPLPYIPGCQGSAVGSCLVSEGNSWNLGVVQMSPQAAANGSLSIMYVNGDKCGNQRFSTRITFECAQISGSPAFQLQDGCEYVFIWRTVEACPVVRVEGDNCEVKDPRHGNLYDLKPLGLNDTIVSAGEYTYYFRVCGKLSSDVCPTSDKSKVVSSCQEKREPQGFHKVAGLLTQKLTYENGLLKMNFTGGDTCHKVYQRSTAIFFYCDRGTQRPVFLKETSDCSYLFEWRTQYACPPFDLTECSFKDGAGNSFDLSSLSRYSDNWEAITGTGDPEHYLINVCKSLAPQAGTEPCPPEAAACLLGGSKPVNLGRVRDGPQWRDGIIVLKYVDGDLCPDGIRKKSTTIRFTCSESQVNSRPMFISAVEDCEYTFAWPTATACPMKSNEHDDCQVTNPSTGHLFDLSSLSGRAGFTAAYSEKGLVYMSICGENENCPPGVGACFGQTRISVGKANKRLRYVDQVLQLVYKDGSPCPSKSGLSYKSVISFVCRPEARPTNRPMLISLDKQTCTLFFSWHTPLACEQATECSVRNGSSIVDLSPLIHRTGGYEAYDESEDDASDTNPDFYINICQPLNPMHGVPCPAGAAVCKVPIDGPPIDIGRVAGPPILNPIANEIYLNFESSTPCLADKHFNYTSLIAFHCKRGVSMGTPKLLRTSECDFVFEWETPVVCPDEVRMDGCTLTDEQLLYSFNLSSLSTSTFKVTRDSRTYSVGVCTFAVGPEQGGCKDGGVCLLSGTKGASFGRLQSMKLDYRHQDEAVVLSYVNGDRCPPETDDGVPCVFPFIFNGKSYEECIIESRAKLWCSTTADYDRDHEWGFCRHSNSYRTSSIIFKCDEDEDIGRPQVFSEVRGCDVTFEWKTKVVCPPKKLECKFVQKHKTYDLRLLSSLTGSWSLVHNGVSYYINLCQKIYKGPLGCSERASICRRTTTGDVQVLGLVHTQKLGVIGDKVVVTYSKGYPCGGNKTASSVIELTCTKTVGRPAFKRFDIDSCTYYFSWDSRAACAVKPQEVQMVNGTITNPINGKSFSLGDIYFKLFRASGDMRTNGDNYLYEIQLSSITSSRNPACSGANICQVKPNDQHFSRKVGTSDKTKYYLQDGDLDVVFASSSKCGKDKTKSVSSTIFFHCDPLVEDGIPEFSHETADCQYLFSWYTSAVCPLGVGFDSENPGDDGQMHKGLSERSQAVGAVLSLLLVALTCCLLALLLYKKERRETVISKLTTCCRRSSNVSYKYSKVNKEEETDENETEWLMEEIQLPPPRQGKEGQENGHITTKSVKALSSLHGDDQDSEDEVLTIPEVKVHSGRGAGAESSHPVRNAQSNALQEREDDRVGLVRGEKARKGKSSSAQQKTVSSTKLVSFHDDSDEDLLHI
In general terms: Surface plasmon resonance follows binding to a sensor surface in real time, without labels.

The next assay concerns the target T1, human ASGPR1 (Homo sapiens, UniProt P07306).
T1 construct: Recombinant extracellular domain of human ASGPR1 with N-terminal biotinylated Avitag
T1 sequence (P07306 62-291 limits assumed): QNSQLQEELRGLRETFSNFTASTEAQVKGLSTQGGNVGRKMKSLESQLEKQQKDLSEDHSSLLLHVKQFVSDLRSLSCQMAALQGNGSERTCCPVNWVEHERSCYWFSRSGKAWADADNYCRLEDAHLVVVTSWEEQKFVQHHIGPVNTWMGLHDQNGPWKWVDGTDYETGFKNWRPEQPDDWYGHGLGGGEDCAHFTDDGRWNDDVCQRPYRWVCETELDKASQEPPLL
In words: ASGPR1 SPR direct binding (Biacore, SA chip). As for the experimental part: SPR was used to obtain the binding data for ASGP receptor ligand compound (int-CC2), either alone or as part of the bifunctional compounds (BFC-13), (BFC-15) and (BFC16).
(§1) ASGPR1 SPR experiments were performed on either Biacore T200 or Biacore 8K. The assay was optimized for Biacore (Streptavidin) SA chip in running buffer consisting of 20 mM HEPES, 300 mM NaCl, 2 mM CaCl2, 0.01% tween-20, 2% DMSO, pH 7.4. Recombinant extracellular domain of human ASGPR1 with N-terminal biotinylated Avitag was diluted to 20 μg/mL in running buffer, and immobilized onto SA chip after it was preconditioned with at least four 60-second injections at 30 uL/min of 1 M NaCl/40 mM NaOH solution. Protein immobilization level varied from 500 RU to 3500 RU dependent on analytes' molecular weight, for targeted Rmax of 30 RUs. Direct binding of analytes to ASGPR1 was observed when a dose response titration of analytes in 2% DMSO was flown over the immobilized protein. Data analysis was done on either Biacore T200 Evaluation Software or Biacore Insight Evaluation Software.
SPR was used to obtain the binding data for ASGP receptor ligand compounds (int-CC2), either alone or as part of the bifunctional compounds (BFC1).
as §1, with “Biacore” for “Biacore (Streptavidin)”

The target in a further assay is T2, human PCSK9 (Homo sapiens, UniProt Q8NBP7).
T2 construct: Purified recombinant full length human PCSK9 with C-terminal biotinylated Avitag
T2 sequence (Q8NBP7 153-692): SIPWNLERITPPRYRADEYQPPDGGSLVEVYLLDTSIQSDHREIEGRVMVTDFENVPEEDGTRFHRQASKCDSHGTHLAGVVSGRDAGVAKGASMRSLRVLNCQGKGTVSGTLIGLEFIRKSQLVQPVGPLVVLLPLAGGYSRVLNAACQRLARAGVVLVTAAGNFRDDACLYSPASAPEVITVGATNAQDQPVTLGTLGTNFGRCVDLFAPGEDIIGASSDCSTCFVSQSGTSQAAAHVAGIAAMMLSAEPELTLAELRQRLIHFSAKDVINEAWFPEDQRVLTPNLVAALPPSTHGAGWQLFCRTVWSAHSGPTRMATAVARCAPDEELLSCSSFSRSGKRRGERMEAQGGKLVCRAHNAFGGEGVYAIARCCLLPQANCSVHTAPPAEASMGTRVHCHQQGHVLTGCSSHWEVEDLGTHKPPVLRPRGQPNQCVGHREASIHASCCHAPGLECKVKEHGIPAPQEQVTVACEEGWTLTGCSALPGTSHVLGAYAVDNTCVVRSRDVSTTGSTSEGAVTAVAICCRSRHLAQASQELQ
The assay can be described thus: SPR binding to biotinylated human PCSK9 (Proteon XPR36). Conditions: Bifunctional Compound; SPR; read-out: PCSK9 KD. As for the experimental part:
SPR was used to obtain the binding data for PCSK9 receptor ligand compound (C5), either alone or as part of the bifunctional compounds (BFC1), respectively.
SPR Binding experiments were performed on a Proteon XPR36 instrument (Bio-Rad Laboratories). Purified recombinant full length human PCSK9 with C-terminal biotinylated Avitag was used for the assay. Biotinylated human PCSK9 was incubated with fivefold molar excess of bifunctional compound (BFC1) or compound (C5), and immobilized onto a Neutravidin coated sensor chip. (NLC chip, Bio-Rad Laboratories, Inc). After conditioning the chip by injecting running buffer (20 mM Tris pH7.5, 300 mM NaCl, 25 mM CaCl2, 2 mM betamercaptoethanol, 2% DMSO and 0.05% Tween-20) at a flow rate of 0.1 mL/min for 240 s, PCSK9 protein was injected at a protein concentration of 0.02 mg/ml in running buffer with fivefold molar excess of bifunctional compound and a flow rate of 0.03 mL/min followed by 4 washes with running buffer with 1 μM of bifunctional compound (0.1 mL/min for 60 seconds each).
To perform sandwich SPR binding assays, His-ASGPR1 (62-291) protein stocks were diluted with running buffer to a desired concentration. ASGPR was injected at a flow rate of 0.1 mL/min for 240 s and allowed to dissociate for 1200 s. Sensorgrams were recorded for association and dissociation phases. All sensorgrams were processed by subtracting the binding response recorded from a blank control surfaces (or interspot surfaces), followed by subtracting buffer blank injections from the reaction surface. Data were processed with the ProteOn Manager software (version 3.1.0.6, Bio-Rad, Inc.).

For a further assay, the target named is T3, FHR3 (Homo sapiens, UniProt Q02985).
T3 construct: Purified FHR3 with C-terminal biotinylated Avitag was used for the assay
T3 sequence (Q02985 19-330): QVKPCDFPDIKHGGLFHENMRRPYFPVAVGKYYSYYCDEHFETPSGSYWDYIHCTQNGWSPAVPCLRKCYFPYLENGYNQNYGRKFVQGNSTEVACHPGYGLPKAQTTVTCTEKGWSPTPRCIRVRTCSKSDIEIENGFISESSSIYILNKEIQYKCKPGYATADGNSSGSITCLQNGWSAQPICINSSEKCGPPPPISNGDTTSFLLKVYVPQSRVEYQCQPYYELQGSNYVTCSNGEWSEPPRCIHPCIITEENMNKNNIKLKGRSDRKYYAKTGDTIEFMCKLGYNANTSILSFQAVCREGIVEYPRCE
In words: SPR binding to biotinylated FHR3 (Proteon XPR36). The conditions noted are these: Bifunctional Compound. As for the experimental part: SPR was used to obtain the binding data for FHR3 receptor ligands compounds (C12), (C13), (C14), (C15) and (C16), either alone or as part of the bifunctional compounds (BFC13), (BFC14), (BFC15), (BFC16) and (BFC17), respectively.
SPR Binding experiments were performed on a Proteon XPR36 instrument (Bio-Rad Laboratories). Purified FHR3 with C-terminal biotinylated Avitag was used for the assay. Biotinylated FHR3 was incubated with fivefold molar excess of bifunctional compounds (BFC13), (BFC14), (BFC15), (BFC16) or (BFC17), or compounds (C12), (C13), (C14), (C15) or (C16), and immobilized onto a Neutravidin coated sensor chip. (NLC chip, Bio-Rad Laboratories, Inc). […]
To perform sandwich SPR binding assays, His-ASGPR1 (62-291) protein stocks were diluted with running buffer to a desired concentration. […] Sensorgrams were recorded for association and dissociation phases. All sensorgrams were processed by subtracting the binding response recorded from a blank control surfaces (or interspot surfaces), followed by subtracting buffer blank injections from the reaction surface. […]

The mark [1] stands for this setting: Bifunctional Compound (PCSK9 series), Table 9, read-out: ASGPR binding KD.

The compound `CC(C)[C@@H]1NC(=O)[C@H](Cc2ccccc2)NC(=O)CSC[C@@H](C(=O)NCC(=O)N[C@@H](CCCCNC(=O)c2ccc(/C=N/OCC(=O)NNC(=O)CCCO[C@@H]3OC(CO[C@H]4OC(CO[C@H]5OC(CO)[C@@H](O)C(O)C5C[C@H]5OC(COP(=O)(O)O)[C@@H](O)C(O)C5O)[C@@H](O)C(O)C4O)[C@@H](O)C(O[C@H]4OC(CO)[C@@H](O)C(O)C4O[C@H]4OC(COP(=O)(O)O)[C@@H](O)C(O)C4O)C3O)cc2)C(N)=O)NC(=O)[C@@H]2CCCN2C(=O)[C@H](C)NC(=O)[C@H](CCC(=O)O)NC(=O)[C@H](C)N(C)C(=O)[C@H](Cc2ccc(-c3ccccc3)cc2)NC(=O)[C@H](C)N(C)C(=O)[C@H](Cc2ccc(-c3ccccc3)cc2)NC(=O)[C@H]([C@@H](C)O)NC(=O)[C@H]([C@@H](C)O)NC(=O)[C@@H]2CCCN2C1=O` (stereo partly drawn) [BFC-2] ({CH2CO}-FVPTT[Bip][NMeA][Bip][NMeA]EAPCGK(X6)-NH2; thioether N-13) showed a Kd at M6PR of 7.19 nM.
Same read-out and setting: under `CC(C)[C@@H]1NC(=O)[C@H](Cc2ccccc2)NC(=O)CSC[C@@H](C(=O)NCC(=O)N[C@@H](CCCCNC(=O)OC[C@@H]2[C@@H]3CCc4c(nnn4CCCCCCO[C@H](O[C@@H](/C=N/OCCO[C@H]4O[C@H](CCP(=O)(O)O)[C@@H](O)[C@H](O)[C@@H]4O)CO)[C@H](O)/C=N\OCCO[C@H]4O[C@H](CCP(=O)(O)O)[C@@H](O)[C@H](O)[C@@H]4O)CC[C@@H]32)C(N)=O)NC(=O)[C@@H]2CCCN2C(=O)[C@H](C)NC(=O)[C@H](CCC(=O)O)NC(=O)[C@H](C)N(C)C(=O)[C@H](Cc2ccc(-c3ccccc3)cc2)NC(=O)[C@H](C)N(C)C(=O)[C@H](Cc2ccc(-c3ccccc3)cc2)NC(=O)[C@H]([C@@H](C)O)NC(=O)[C@H]([C@@H](C)O)NC(=O)[C@@H]2CCCN2C1=O` [BFC-4] ({CH2CO}-FVPTT[Bip][NMeA][Bip][NMeA]EAPCGK(X7)-NH2; thioether N-13) stands 110 nM.
Consider `CC(=O)N[C@H]1[C@H]2OC[C@](COCCOCCOCCOCCn3cc(COCC(COCc4cn(CCOCCOCCOCCOC[C@@]56CO[C@@H](O5)[C@H](NC(C)=O)[C@@H](O)[C@H]6O)nn4)NC(=O)CCOCCOCCOCCOCCC(=O)NCCCC[C@H](NC(=O)CNC(=O)[C@@H]4CSCC(=O)N[C@@H](Cc5ccccc5)C(=O)N[C@@H](C(C)C)C(=O)N5CCC[C@H]5C(=O)N[C@@H]([C@@H](C)O)C(=O)N[C@@H]([C@@H](C)O)C(=O)N[C@@H](Cc5ccc(-c6ccccc6)cc5)C(=O)N(C)[C@@H](C)C(=O)N[C@@H](Cc5ccc(-c6ccccc6)cc5)C(=O)N(C)[C@@H](C)C(=O)N[C@@H](CCC(=O)O)C(=O)N[C@@H](C)C(=O)N5CCC[C@H]5C(=O)N4)C(N)=O)nn3)(O2)[C@H](O)[C@@H]1O` (stereo partly drawn) [BFC-7] ({CH2CO}-FVPTT[Bip][NMeA][Bip][NMeA]EAPCGK(X2)-NH2; thioether N-13), for which the values for the Kd at human ASGPR1 (setting [1]) and at human PCSK9 were 7 nM and 3.5 nM, respectively.
The matching figures for `COC[C@H]1NC(=O)[C@@H](CCCNC(=O)CCCCCCC(=O)NC(COCCC(=O)NCCCNC(=O)CCCCO[C@H]2O[C@@H](CO)[C@@H](O)[C@@H](O)[C@@H]2NC(C)=O)(COCCC(=O)NCCCNC(=O)CCCCO[C@H]2O[C@@H](CO)[C@@H](O)[C@@H](O)[C@@H]2NC(C)=O)COCCC(=O)NCCCNC(=O)CCCCO[C@H]2O[C@@H](CO)[C@@H](O)[C@@H](O)[C@@H]2NC(C)=O)N(Cc2ccc(Cl)cc2Oc2ccc(-c3cnc(CN(C)C)n3C)cc2)C(=O)C[C@H](Cc2ccccc2)C(=O)N(C)[C@@H]2CCCC[C@H]2NC(=O)C[C@@H](Cc2ccc(Cl)cc2)N(C)C1=O` [BFC-10]: 100 nM and 2.3 nM.
Take `CC(=O)N[C@H]1[C@H](OCCCCC(=O)NCCCNC(=O)CCOCC(COCCC(=O)NCCCNC(=O)CCCCO[C@@H]2O[C@H](CO)[C@H](O)[C@H](O)[C@H]2NC(C)=O)(COCCC(=O)NCCCNC(=O)CCCCO[C@@H]2O[C@H](CO)[C@H](O)[C@H](O)[C@H]2NC(C)=O)NC(=O)CCOCCOCCOCCOCCOCCOCCOCCOCCOCCC(=O)NCCCC[C@@H]2NC(=O)[C@H](Cc3ccc(O)cc3)NC(=O)[C@H](CC(N)=O)NC(=O)[C@H](C(C)C)NC(=O)[C@H](CO)NC(=O)[C@H](Cc3ccccc3)N(C)C(=O)[C@H](CCCNC(=N)N)NC(=O)[C@H](Cc3ccccc3)NC(=O)CSC[C@@H](C(=O)NCC(N)=O)NC(=O)[C@H](Cc3ccccc3)N(C)C(=O)[C@H](CC(N)=O)NC(=O)[C@@H]3Cc4ccccc4CN3C(=O)[C@H](CC(=O)O)NC(=O)[C@H](CCCNC(=N)N)NC2=O)O[C@H](CO)[C@H](O)[C@@H]1O` [BFC-15]: the Kd at FHR3 stood at 301 nM; on human ASGPR1 (Bifunctional Compound (FHR3 series), Table 7, read-out: ASGRR KD), 0.45 nM.
Turning to `NOCC(=O)NNC(=O)CCCO[C@@H]1OC(CO[C@H]2OC(CO[C@H]3OC(CO)[C@@H](O)[C@H](O)C3O[C@H]3OC(COP(=O)(O)O)[C@@H](O)C(O)[C@H]3O)[C@@H](O)[C@H](O)C2O)[C@@H](O)[C@H](O[C@H]2OC(CO)[C@@H](O)C(O)[C@H]2O[C@H]2OC(COP(=O)(O)O)[C@@H](O)C(O)[C@H]2O)C1O` (stereo partly drawn) [int-CC6], the Kd on M6PR (Free Ligand, SPR, read-out: M6PR binding KD) stood at 0.327 nM.

A word on the Kd: it is the equilibrium constant for the complex coming apart.
